Results reported in patent US20220289732A1, “HETEROCYCLIC WDR5 INHIBITORS AS ANTI-CANCER COMPOUNDS” (NOVARTIS AG, priority 2019, published 2022).

Tests used:
WDR5 = WDR5 (Homo sapiens, UniProt P61964); assay: WDR5 HTRF binding assay; settings: read-out: (a) WDR5 HTRF Pep Val v.1[Inhibitor/IC50]Qualified AC50
Summary of the method: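 6 nM WDR5 and 20 nM biotin-MLL1 WIN peptide (3762-3773) were incubated with compound (12-point, 3-fold dilutions) in pH 7.5 Hepes/NaCl/DTT buffer for 20 min at rt. Streptavidin-APC plus anti-His-Eu were then added for 1 hr, with HTRF read at 665/615. IC50 was fit from control-normalized activity; the counter assay used 15 nM biotin-PEG-His peptide.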

[1] = biological target: wild type MLL1 four-member complex (MLL1-4C) (Homo sapiens, UniProt P61964); assay: MLL1 LC-MS assay (SAH production); format: biochemical; settings: read-out: (b) MLL LCMS Peptide Val.v.1 Qualified AC50
Summary of the method: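 MLL1-4C (30 nM final) was preincubated 20 min with compound (3-fold dilutions, 8 or 12 points) and SAM in Tris-HCl pH 8.0 buffer. H3K4me0 peptide (histone H3[1-21]-biotin) was then added, giving final 2.5 μM SAM and 10 μM substrate, and reactions ran 120 min at rt. After TFA/d4-SAH quench, SAH was quantified by LC-MS/MS and IC50 fitted from control-normalised activity.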

MV4-11 cells = assay: MV4-11 6-day cell growth CTG (CellTiter-Glo) assay; format: cell-based; settings: Homo sapiens, MV4-11, 144 h, 6 days, read-out: (c) MLL/WDR5 cell proliferation assay//MLL/WDR5 proliferation MV4:11 Qualified AC50
Summary of the method: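 Exponentially growing MV4-11 AML cells (RPMI 1640, 10% FBS) seeded at 300 cells/well with 12-point 1:3 compound dilutions, top final concentration 50 μM. Viability read by CellTiter-Glo luminescence after 6 days at 37° C; % inhibition vs DMSO-only wells fitted to dose-response for IC50.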

| Compound | IC50 (WDR5) | AC50 [1] | AC50 (MV4-11 cells) |
| --- | --- | --- | --- |
| CCN(C)CCc1cc2c(c(-c3cn(C)nc3C)c1)CCN([C@@H](C)c1cnc(F)c(OC)c1)C2=O [Example 123, (S)-5-(1,3-dimethyl-1H-pyrazol-4-yl)-7-(2-(ethyl(methyl)amino)ethyl)-2-(1-(6-fluoro-5-methoxypyridin-3-yl)ethyl)-3,4-dihydroisoquinolin-1(2H)-one] | < 10 nM | 10 to 1000 nM | 10 to 1000 nM |
| CCOc1cc([C@H](C)N2CCc3c(cc(CCN(C)CC)cc3-c3cc(CO)cnc3Cl)C2=O)ncc1C#N [Example 124, (S)-6-(1-(5-(2-chloro-5-(hydroxymethyl)pyridin-3-yl)-7-(2-(ethyl(methyl)amino)ethyl)-1-oxo-3,4-dihydroisoquinolin-2(1H)-yl)ethyl)-4-ethoxynicotinonitrile] | < 10 nM | 10 to 1000 nM | 10 to 1000 nM |
| CCOc1cc([C@H](C)N2CCc3c(cc(CCN(C)CC)cc3-c3cn(C)c(=O)c(C)c3C)C2=O)ncc1C#N [Example 125, (S)-4-ethoxy-6-(1-(7-(2-(ethyl(methyl)amino)ethyl)-1-oxo-5-(1,4,5-trimethyl-6-oxo-1,6-dihydropyridin-3-yl)-3,4-dihydroisoquinolin-2(1H)-yl)ethyl)nicotinonitrile] | < 10 nM | 10 to 1000 nM | 10 to 1000 nM |
| CCOc1cc([C@H](C)N2CCc3c(cc(CCN(C)CC)cc3-c3cn(C)nc3C(F)F)C2=O)ncc1C#N [Example 126, (S)-6-(1-(5-(3-(difluoromethyl)-1-methyl-1H-pyrazol-4-yl)-7-(2-(ethyl(methyl)amino)ethyl)-1-oxo-3,4-dihydroisoquinolin-2(1H)-yl)ethyl)-4-ethoxynicotinonitrile] | < 10 nM | 10 to 1000 nM | 10 to 1000 nM |
| CCOc1cc([C@H](C)N2CCc3c(cc(CCN(C)CC)cc3-c3cn(CC)nc3C)C2=O)ncc1C#N [Example 127, (S)-4-ethoxy-6-(1-(7-(2-(ethyl(methyl)amino)ethyl)-5-(1-ethyl-3-methyl-1H-pyrazol-4-yl)-1-oxo-3,4-dihydroisoquinolin-2(1H)-yl)ethyl)nicotinonitrile] | < 10 nM | 10 to 1000 nM | 10 to 1000 nM |
| CCOc1cc([C@H](C)N2CCc3c(cc(CCN(C)CC)cc3-c3cc(C)cnc3C(F)F)C2=O)ncc1C#N [Example 128, (S)-6-(1-(5-(2-(difluoromethyl)-5-methylpyridin-3-yl)-7-(2-(ethyl(methyl)amino)ethyl)-1-oxo-3,4-dihydroisoquinolin-2(1H)-yl)ethyl)-4-ethoxynicotinonitrile] | < 10 nM | 10 to 1000 nM | 10 to 1000 nM |
| CCOc1cc(CN2CCc3c(cc(CCN(C)CC)cc3-c3cn(C)nc3C)C2=O)ncc1C#N [Example 129, 6-((5-(1,3-dimethyl-1H-pyrazol-4-yl)-7-(2-(ethyl(methyl)amino)ethyl)-1-oxo-3,4-dihydroisoquinolin-2(1H)-yl)methyl)-4-ethoxynicotinonitrile] | < 10 nM | 10 to 1000 nM | 10 to 1000 nM |
| CCOc1cc(CN2CCc3c(cc(CCN(C)CC)cc3-c3ccc(F)nc3C)C2=O)ncc1C#N [Example 130, 4-ethoxy-6-((7-(2-(ethyl(methyl)amino)ethyl)-5-(6-fluoro-2-methylpyridin-3-yl)-1-oxo-3,4-dihydroisoquinolin-2(1H)-yl)methyl)nicotinonitrile] | < 10 nM | 10 to 1000 nM | 10 to 1000 nM |
| CCOc1cc([C@H](C)N2CCc3c(cc(CCN(C)CC)cc3-c3cn(C)c(=O)cc3C)C2=O)ncc1C#N [Example 131, (S)-6-(1-(5-(1,4-dimethyl-6-oxo-1,6-dihydropyridin-3-yl)-7-(2-(ethyl(methyl)amino)ethyl)-1-oxo-3,4-dihydroisoquinolin-2(1H)-yl)ethyl)-4 ethoxynicotinonitrile] | < 10 nM | 10 to 1000 nM | 10 to 1000 nM |
| CCOc1cc(CN2CCc3c(cc(CCN(C)CC)cc3-c3ccc(F)nc3C)C2=O)ncc1F [Example 132, 2-((4-ethoxy-5-fluoropyridin-2-yl)methyl)-7-(2-(ethyl(methyl)amino)ethyl)-5-(6-fluoro-2-methylpyridin-3-yl)-3,4-dihydroisoquinolin-1(2H)-one] | < 10 nM | 10 to 1000 nM | 10 to 1000 nM |
| CCOc1cc(CN2CCc3c(cc(CCN(C)CC)cc3-c3cc(C)ncc3Cl)C2=O)ncc1C#N [Example 133, 6-((5-(5-chloro-2-methylpyridin-4-yl)-7-(2-(ethyl(methyl)amino)ethyl)-1-oxo-3,4-dihydroisoquinolin-2(1H)-yl)methyl)-4-ethoxynicotinonitrile] | < 10 nM | 10 to 1000 nM | 10 to 1000 nM |
| CCOc1cc([C@H](C)N2CCc3c(cc(CCN(C)CC)cc3-c3cn(C)nc3C)C2=O)ncc1C#N [Example 134, (S)-6-(1-(5-(1,3-dimethyl-1H-pyrazol-4-yl)-7-(2-(ethyl(methyl)amino)ethyl)-1-oxo-3,4-dihydroisoquinolin-2(1H)-yl)ethyl)-4-ethoxynicotinonitrile] | < 10 nM | 10 to 1000 nM | 10 to 1000 nM |
| CCOc1cc(CN2CCc3c(cc(CCN(C)CC)cc3-c3cn(C)c(=O)cc3C)C2=O)ncc1C#N [Example 135, 6-((5-(1,4-dimethyl-6-oxo-1,6-dihydropyridin-3-yl)-7-(2-(ethyl(methyl)amino)ethyl)-1-oxo-3,4-dihydroisoquinolin-2(1H)-yl)methyl)-4-ethoxynicotinonitrile] | < 10 nM | 10 to 1000 nM | 10 to 1000 nM |
| CCOc1cc(C(C)N2CCc3c(cc(CCN(C)CC)cc3-c3cc(OC)ncc3Cl)C2=O)ncc1C#N (stereo not drawn) [Example 136, 6-(1-(5-(5-chloro-2-methoxypyridin-4-yl)-7-(2-(ethyl(methyl)amino)ethyl)-1-oxo-3,4-dihydroisoquinolin-2(1H)-yl)ethyl)-4-ethoxynicotinonitrile] | < 10 nM | 10 to 1000 nM | 10 to 1000 nM |
| CCN(C)CCc1cc2c(c(-c3ccc(F)nc3C)c1)CCN(Cc1cnc(F)c(OC)c1)C2=O [Example 137, 7-(2-(ethyl(methyl)amino)ethyl)-5-(6-fluoro-2-methylpyridin-3-yl)-2-((6-fluoro-5-methoxypyridin-3-yl)methyl)-3,4-dihydroisoquinolin-1(2H)-one] | < 10 nM | 10 to 1000 nM | 10 to 1000 nM |
| CCOc1cc([C@H](C)N2CCc3c(cc(CCN(C)CC)cc3-c3cc(N)cnc3C(F)(F)F)C2=O)ncc1C#N [Example 138, (S)-6-(1-(5-(5-amino-2-(trifluoromethyl)pyridin-3-yl)-7-(2-(ethyl(methyl)amino)ethyl)-1-oxo-3,4-dihydroisoquinolin-2(1H)-yl)ethyl)-4-ethoxynicotinonitrile] | < 10 nM | 10 to 1000 nM | 10 to 1000 nM |
| CCOc1cc([C@H](C)N2CCc3c(cc(CCN(C)CC)cc3-c3cccnc3C)C2=O)ncc1C#N [Example 139, (S)-4-ethoxy-6-(1-(7-(2-(ethyl(methyl)amino)ethyl)-5-(2-methylpyridin-3-yl)-1-oxo-3,4-dihydroisoquinolin-2(1H)-yl)ethyl)nicotinonitrile] | < 10 nM | 10 to 1000 nM | 10 to 1000 nM |
| CCOc1cc(CN2CCc3c(cc(CCN(C)CC)cc3-c3cc(C)cnc3C)C2=O)ncc1C#N [Example 140, 6-((5-(2,5-dimethylpyridin-3-yl)-7-(2-(ethyl(methyl)amino)ethyl)-1-oxo-3,4-dihydroisoquinolin-2(1H)-yl)methyl)-4-ethoxynicotinonitrile] | < 10 nM | 10 to 1000 nM | 10 to 1000 nM |
| CCOc1cc(C(C)N2CCc3c(cc(CCN(C)CC)cc3-c3ccnc(F)c3C)C2=O)ncc1C#N (stereo not drawn) [Example 141, 4-ethoxy-6-(1-(7-(2-(ethyl(methyl)amino)ethyl)-5-(2-fluoro-3-methylpyridin-4-yl)-1-oxo-3,4-dihydroisoquinolin-2(1H)-yl)ethyl)nicotinonitrile] | 10 to 1000 nM | 10 to 1000 nM | 10 to 1000 nM |
| CCOc1cc([C@H](C)N2CCc3c(cc(CCN(C)CC)cc3-c3cc(C)ncc3F)C2=O)ncc1C#N [Example 142, (S)-4-ethoxy-6-(1-(7-(2-(ethyl(methyl)amino)ethyl)-5-(5-fluoro-2-methylpyridin-4-yl)-1-oxo-3,4-dihydroisoquinolin-2(1H)-yl)ethyl)nicotinonitrile] | 10 to 1000 nM | 10 to 1000 nM | 10 to 1000 nM |
| CCOc1cc(C(C)N2CCc3c(cc(CCN(C)CC)cc3-c3cc(F)ncc3C)C2=O)ncc1C#N (stereo not drawn) [Example 143, 4-ethoxy-6-(1-(7-(2-(ethyl(methyl)amino)ethyl)-5-(2-fluoro-5-methylpyridin-4-yl)-1-oxo-3,4-dihydroisoquinolin-2(1H)-yl)ethyl)nicotinonitrile] | 10 to 1000 nM | 10 to 1000 nM | 10 to 1000 nM |
| CCOc1cc(CN2CCc3c(cc(CCN(C)CC)cc3-c3cc(C)cnc3C(F)F)C2=O)ncc1C#N [Example 144, 6-((5-(2-(difluoromethyl)-5-methylpyridin-3-yl)-7-(2-(ethyl(methyl)amino)ethyl)-1-oxo-3,4-dihydroisoquinolin-2(1H)-yl)methyl)-4-ethoxynicotinonitrile] | 10 to 1000 nM | 10 to 1000 nM | 10 to 1000 nM |
